Laboratory results as given in US20100203531A1, “PREDICTING RESPONSIVENESS TO TEMOZOLOMIDE” (priority 2007, published 2010).

Legend:
Format in all cases: in vivo, human
[1] = tested on: GBM8 xenograft; test: Orthotopic intracranial xenograft survival, GBM8
Method: (§1) In vivo sensitivity of GBM lines to TMZ: To address whether MGMT methylation or polypeptide expression status are predictive of TMZ responsiveness, the effects of TMZ therapy on survival were evaluated in the panel of xenografts using an orthotopic therapy model. Mice with established intracranial xenografts were treated with 66 mg/kg TMZ or placebo daily for 5 days by oral gavage. This TMZ dosing regimen provides the equivalent dose-exposure to TMZ as the standard adjuvant TMZ dosing regimen for GBM patients of 200 mg/m^2×5 days. All mice were followed until reaching a moribund state, and the relative prolongation of survival following TMZ treatment was calculated for each line relative to placebo treatment (Table 1). […] Further analysis of the relationship between TMZ responsiveness and MGMT methylation status in 17 xenograft lines was conducted by comparing the distribution of median survival prolongation results for methylation-positive and methylation-negative groups of xenografts. From this analysis, MGMT methylation was modestly associated with increased TMZ sensitivity (FIG. 2, p=0.039, two-sample rank sum test). In a similar analysis of MGMT polypeptide expression levels, high levels of MGMT polypeptide expression were invariably associated with relative TMZ resistance, and the absence of MGMT polypeptide expression was associated with significant TMZ sensitivity (r=−0.73, p=0.005). […] While p53, PTEN and EGFR function have been linked to TMZ sensitivity in some models, no correlation between genetic alterations of these genes and TMZ responsiveness was observed.
(§2) Orthotopic model: Therapy evaluations were conducted using an orthotopic tumor model as described elsewhere (Sarkaria et al., Clin Cancer Res, 12:2264-2271 (2006), Giannini et al., Neuro-Oncology, 7:164-176, (2005)). Athymic nude mice (NCI, Frederick, Md.) with established intracranial tumors were randomized into groups of 8 to 10 mice each and treatment was initiated 2 weeks before mice were expected to become moribund. TMZ was purchased from the Mayo Clinic Pharmacy, suspended in Ora-plus (Paddock Laboratories, Minneapolis. MN), and administered by oral gavage at 66 mg/kg for 5 days. Mice were observed daily and euthanized when moribund.
(§3) Statistical analysis: Survival distributions were estimated using the Kaplan-Meier method. The log rank test was used to compare survival across treatment groups. All GBM experiments were pooled and Classification and Regression Tree analysis (CART) was used to identify which CpG sites in the MS-PCR assay (CpG sites 78-82, 86-89) were predictive of overall survival in TMZ treated mice. The two-sample rank sum test was used to compare relative differences in survival relative to MGMT MS-PCR status or CpG89 methylation status. […]

[2] = tested on: GBM12 xenograft; test: Orthotopic intracranial xenograft survival, GBM12
Method: as §1
as §2, with “MN), and administered by oral gavage at 66 mg/kg for 5 days.” left out
(§4) Statistical analysis: Survival distributions were estimated using the Kaplan-Meier method. The log rank test was used to compare survival across treatment groups. All GBM experiments were pooled and Classification and Regression Tree analysis (CART) was used to identify which CpG sites in the MS-PCR assay (CpG sites 78-82, 86-89) were predictive of overall survival in TMZ treated mice. The two-sample rank sum test was used to compare relative differences in survival relative to MGMT MS-PCR status or CpG89 methylation status. Spearman's correlation coefficient was used to assess the association of relative median survival and protein expression levels of MGMT relative to 13-actin.

[3] = tested on: GBM14 cells transduced with a luciferase-expressing lentiviral construct; test: Salvage TMZ therapy in intracranial GBM14-luciferase tumors with bioluminescence imaging
Method: Development of resistance to TMZ during in vivo therapy: The effect of salvage TMZ therapy in recurrent tumors was studied in the GBM14 xenograft line with the assistance of bioluminescence imaging (BLI). In this study, GBM14 cells were transduced with a luciferase-expressing lentiviral construct and then used to establish intracranial tumors. Mice were randomized into three groups: a) vehicle control, b) single dose of 120 mg/kg TMZ, c) initial TMZ dose followed by a second TMZ dose at the time of tumor regrowth, as indicated by BLI (FIGS. 7A and B). […] Extrapolating to the clinic, the apparent development of TMZ resistance during the course of treatment is reminiscent of patients who experience an initial response to TMZ therapy but then develop progressive disease during latter cycles of TMZ treatment.

[4] = tested on: GBM26 xenograft; test: Orthotopic intracranial xenograft survival, GBM26; details: for Survival Prolongation: median survival relative to placebo, 66 mg/kg oral for 5 days (Table 3), 66 mg/kg
Method: as §1, §2, §4

[5] = tested on: GBM43 xenograft; test: Orthotopic intracranial xenograft survival, GBM43
Method: as §1
as §2, with “MN), and administered by oral gavage at 66 mg/kg for 5 days.” left out
as §4

[6] = tested on: GBM14 xenograft; test: Orthotopic intracranial xenograft survival, GBM14
Method: as §1
as §2, with “MN), and administered by oral gavage at 66 mg/kg for 5 days.” left out
as §4

[7] = tested on: GBM22 / GS22 xenograft; test: Orthotopic intracranial xenograft survival, GBM22 (GS22)
Method: as §1, §2, §3

## Cn1nnc2c(C(N)=O)ncn2c1=O [TMZ, Temozolomide]
[1]; GBM8, median survival relative to placebo, 66 mg/kg oral for 5 days (Table 3)
  Survival Prolongation: 110%
[1]; GBM8, prolongation of median survival relative to placebo, TMZ 66 mg/kg oral x5 days
  Survival benefit: 110%
[1]; GBM8 intracranial xenograft, nude mice, TMZ 66 mg/kg oral daily x5 days
  TMZ median survival: 124
[1]; GBM8 intracranial, athymic nude mice, 66 mg/kg oral gavage for 5 days (Table 3)
  Temozolomide median survival: 124
[2]; GBM12, median survival relative to placebo, 66 mg/kg oral for 5 days (Table 3)
  Survival Prolongation: 253%
[2]; GBM12, prolongation of median survival relative to placebo, TMZ 66 mg/kg oral x5 days
  Survival benefit: 253%
[2]; GBM12 generation 10, TMZ 120 mg/kg for 5 days, intracranial
  Survival benefit: 268%
[2]; GBM12 generation 30, TMZ 66 mg/kg for 5 days, intracranial
  Survival benefit: 164%
[2]; GBM12 intracranial xenograft, nude mice, TMZ 66 mg/kg oral daily x5 days
  TMZ median survival: 53
[2]; GBM12 intracranial, athymic nude mice, 66 mg/kg oral gavage for 5 days (Table 3)
  Temozolomide median survival: 53
[3]; second TMZ dose at time of tumor regrowth/recurrence, beyond single-dose prolongation
  additional survival from second TMZ dose: 22 days
[3]; single dose of 120 mg/kg TMZ, relative to placebo/vehicle, intracranial GBM14-luciferase
  survival prolongation with a single TMZ dose: 56 days
[4]; GBM26
  Survival Prolongation: 21%
[4]; GBM26, listed as Temozolomide
  Survival Prolongation: 21%
[4]; GBM26, prolongation of median survival relative to placebo, TMZ 66 mg/kg oral x5 days
  Survival benefit: 21%
[4]; GBM26 intracranial xenograft, nude mice, TMZ 66 mg/kg oral daily x5 days
  TMZ median survival: 100
[4]; GBM26 intracranial, athymic nude mice, 66 mg/kg oral gavage for 5 days (Table 3)
  Temozolomide median survival: 100
[5]; GBM43, median survival relative to placebo, 66 mg/kg oral for 5 days (Table 3)
  Survival Prolongation: 87%
[5]; GBM43, prolongation of median survival relative to placebo, TMZ 66 mg/kg oral x5 days
  Survival benefit: 87%
[5]; GBM43 generation 6, TMZ 120 mg/kg for 5 days, intracranial
  Survival benefit: 104%
[5]; GBM43 generation 10, TMZ 66 mg/kg for 5 days, intracranial
  Survival benefit: 83%
[5]; GBM43 intracranial xenograft, nude mice, TMZ 66 mg/kg oral daily x5 days
  TMZ median survival: 43
[5]; GBM43 intracranial, athymic nude mice, 66 mg/kg oral gavage for 5 days (Table 3)
  Temozolomide median survival: 43
[6]; GBM14, median survival relative to placebo, 66 mg/kg oral for 5 days (Table 3)
  Survival Prolongation: 558%
[6]; GBM14, prolongation of median survival relative to placebo, TMZ 66 mg/kg oral x5 days
  Survival benefit: 558%
[6]; GBM14 generation 21, TMZ 120 mg/kg for 5 days, intracranial
  Survival benefit: 148%
[6]; GBM14 generation 33, TMZ 66 mg/kg for 5 days, intracranial
  Survival benefit: 421%
[6]; GBM14 intracranial xenograft, nude mice, TMZ 66 mg/kg oral daily x5 days
  TMZ median survival: 154
[6]; GBM14 intracranial, athymic nude mice, 66 mg/kg oral gavage for 5 days (Table 3)
  Temozolomide median survival: 217
[7]; GBM22, prolongation of median survival relative to placebo, TMZ 66 mg/kg oral x5 days
  Survival benefit: 260%
[7]; GBM22 intracranial xenograft, nude mice, TMZ 66 mg/kg oral daily x5 days
  TMZ median survival: 124
[7]; GS22, median survival relative to placebo, 66 mg/kg oral for 5 days (Table 3)
  Survival Prolongation: 260%
[7]; GS22 intracranial, athymic nude mice, 66 mg/kg oral gavage for 5 days (Table 3)
  Temozolomide median survival: 155
